Each structure is given as a SMILES string.

The results in this text go back to patent EP0871454B1, “PHOSPHOROUS-CONTAINING CYSTEINE AND SERINE PROTEASE INHIBITORS” (CEPHALON, INC., priority 1995, dated 1997).

This experiment addresses T1, Calpain I (Homo sapiens, UniProt P07384).
T1 construct: made in house
T1 sequence (P07384 1-714): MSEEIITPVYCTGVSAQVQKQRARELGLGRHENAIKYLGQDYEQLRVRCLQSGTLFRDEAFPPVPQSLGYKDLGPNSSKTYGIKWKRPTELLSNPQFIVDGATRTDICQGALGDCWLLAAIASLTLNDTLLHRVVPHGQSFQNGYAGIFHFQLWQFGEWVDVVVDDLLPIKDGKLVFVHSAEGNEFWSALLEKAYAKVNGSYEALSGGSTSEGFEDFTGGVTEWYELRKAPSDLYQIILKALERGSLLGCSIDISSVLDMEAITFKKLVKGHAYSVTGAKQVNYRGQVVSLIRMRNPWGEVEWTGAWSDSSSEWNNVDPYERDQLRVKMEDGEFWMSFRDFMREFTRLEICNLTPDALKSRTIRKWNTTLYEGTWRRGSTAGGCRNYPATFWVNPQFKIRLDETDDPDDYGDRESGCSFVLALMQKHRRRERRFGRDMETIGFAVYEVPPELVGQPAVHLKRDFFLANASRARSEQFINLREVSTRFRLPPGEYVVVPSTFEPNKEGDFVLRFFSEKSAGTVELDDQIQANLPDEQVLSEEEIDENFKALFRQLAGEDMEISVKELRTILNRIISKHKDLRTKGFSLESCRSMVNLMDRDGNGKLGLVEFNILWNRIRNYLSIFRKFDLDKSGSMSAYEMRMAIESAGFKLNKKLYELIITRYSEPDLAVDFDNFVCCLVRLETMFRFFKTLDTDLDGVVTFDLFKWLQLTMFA
T1 sequence (P04632 1-268 partner): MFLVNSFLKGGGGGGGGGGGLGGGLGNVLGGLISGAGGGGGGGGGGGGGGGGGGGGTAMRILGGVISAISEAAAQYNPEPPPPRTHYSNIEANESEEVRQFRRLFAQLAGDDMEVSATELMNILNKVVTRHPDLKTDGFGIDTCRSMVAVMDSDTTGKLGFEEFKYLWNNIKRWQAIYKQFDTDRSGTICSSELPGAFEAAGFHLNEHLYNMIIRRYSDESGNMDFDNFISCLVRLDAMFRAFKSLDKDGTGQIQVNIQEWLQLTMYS
In words: Inhibition and rate of inactivation of calpain I activity (Succ-Leu-Tyr-MNA substrate hydrolysis). As to conditions: for kobs/I: apparent second order rate constant of inactivation, pseudo-first order conditions, compounds tested at 0.1 µM, mean of three or more single cuvette analyses. Format: biochemical. The procedure:
Inhibition and Rate of Inactivation of Cysteine Protease Activity
To evaluate inhibitory activity, stock solutions (40 times concentrated) of each compound to be tested were prepared in 100% anhydrous DMSO and 5 µl of each inhibitor preparation were aliquoted into each of three wells of a 96 well plate. Calpain I, prepared by a modification of the method of W. J. Lee et al. (Biochem. Internatl. 22: 163-171 (1990)), was diluted into assay buffer (i.e., 50mM Tris, 50mM NaCl, 1mM EDTA, 1mM EGTA, and 5mM β-mercaptoethanol, pH 7.5 including 0.2mM Succ-Leu-Tyr-MNA) and 175 µl aliquoted into the same wells containing the independent inhibitor stocks as well as to positive control wells containing 5 µl DMSO, but no compound. To start the reaction, 20 µl of 50 mM CaCl2 in assay buffer was added to all wells of the plate, excepting three, which were used as background signal baseline controls. Substrate hydrolysis was monitored every 5 minutes for a total of 30 minutes. Substrate hydrolysis in the absence of inhibitor was linear for up to 15 minutes.
Inhibition of calpain I activity was calculated as the percent decrease in the rate of substrate hydrolysis in the presence of inhibitor (vi) relative to the rate in its absence (vo). Comparison between vo and vi was made within the linear range for substrate hydrolysis. […] Apparent second order rate constants were determined from analysis of reaction progress curves under pseudo-first order conditions. Each determination represents the mean of three or more independent single cuvette analyses continually monitored via a Perkin-Elmer LS50B spectrofluorimeter.
Values for kobs/I are given in Table I for compounds tested at 0.1 µM. [drawing 8]

Regarding `CC(C)C[C@H](NC(=O)OCc1ccccc1)C(=O)N[C@@H](Cc1ccccc1)C(=O)COP1(=O)OCC(OCc2ccccc2)CO1` (some centres unmarked) [Example 47], the “% Inhib. @ 0.1 uM” value (0.1 uM compound, percent decrease in rate of substrate hydrolysis relative to no inhibitor) came out at 47%.

On to `CC(C)C[C@H](NC(=O)C12OC(CO)C(O)C1OC(C)(C)O2)C(=O)N[C@@H](Cc1ccccc1)C(=O)COP(=O)(OCc1ccccc1)OCc1ccccc1` (stereo partly drawn) [Example 38, Dibenzyl (3S)-[3-[(N-monoisopropylidine-2-keto-L-gulonyl-L-leucyl)amino]-2-oxo-4-phenylbutyl] phosphate)], for which the kobs/I was found to be 116000 M⁻¹ s⁻¹.

Take `CC(C)CC(NC(=O)C12OC3COC(C)(C)OC3C1OC(C)(C)O2)C(=O)NC(Cc1ccccc1)C(=O)COP(=O)(OCc1ccccc1)OCc1ccccc1` [Example 37, Dibenzyl (3S)-[3-[(N-diisopropylidine-2-keto-L-gulonyl-L-leucyl)amino]-2-oxo-4-phenylbutyl] phosphate]: the kobs/I came out at 113000 M⁻¹ s⁻¹.

Turning to `CC(C)C[C@H](NC(=O)OC(C)(C)C)C(=O)N[C@@H](Cc1ccccc1)C(=O)COP(=O)(OCc1ccccc1)OCc1ccccc1` [Example 35, Dibenzyl (3S)-[3-[(N-t-Butoxycarbonyl-L-leucyl)amino]-2-oxo-4-phenylbutyl]phosphate], the kobs/I was found to be 242000 M⁻¹ s⁻¹.

With `CC(C)C[C@H](NS(=O)(=O)N1CCOCC1)C(=O)N[C@@H](Cc1ccccc1)C(=O)COP(=O)(OCc1ccccc1)OCc1ccccc1` [Example 36, Dibenzyl (3S)-[3-[(N-morpholinylsulfonyl-L-leucyl)amino]-2-oxo-4-phenylbutyl] phosphate], the kobs/I was determined as 182000 M⁻¹ s⁻¹.
